Structures are written as SMILES.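 Protocol summary: plate cells (96-well), add compound at 5 concentrations, incubate 48 h, interpolate endpoints linearly. GI50: concentration for 50% inhibition of growth. Definition used: TGI = concentration required for complete inhibition of growth.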 Some results are limits rather than exact numbers.

Holding throughout (assay): NCI-60 cell line screen, 48 h
In assay [1] the test system is SK-OV-3 ovarian.
Assay [2] concerns HCT-15 colon.
For assay [3], the system named is CAKI-1 renal.
The subject of assay [4] is SF-295 CNS.
The test system of assay [5] is SF-539 CNS.
Assay [6] deals with SF-268 CNS.
Assay [7] concerns OVCAR-8 ovarian.
Assay [8] has as its system IGROV1 ovarian.
Assay [9] deals with M14 melanoma.
The test system of assay [10] is OVCAR-4 ovarian.

`N=C1C(c2nc(-c3ccc(Br)cc3)cs2)=C(O)CN1CC1CCCO1` (centres undefined): the GI50 in assay [1], in assay [2], in [3], in assay [4], in [5] and in assay [6] was above 100 µM in each case. Besides, the TGI in [1], in assay [2], in assay [3], in [4], in assay [5] and in assay [6] was above 100 µM throughout.

`CC(C)=CCC/C(C)=C/[C@H]1OC(=O)CC12C[C@H](O)C=CC2=O` (some centres undefined): the GI50 is 1.44 µM in assay [1]; 0.791 µM in assay [7]; 1.65 µM in assay [8]; 0.509 µM in assay [2]; 0.827 µM in assay [3]; 1.98 µM in assay [4]. In addition, the GI50 was 0.421 µM in assay [5], 0.32 µM in assay [9] and 0.922 µM in [6]. For the same compound, the TGI was 3.19 µM in [1]; above 100 µM in assay [2]; 2.3 µM in [3]; 4.69 µM in [4]; 1.26 µM in assay [5]; 0.833 µM in assay [9]. The compound further displayed a TGI in assay [6] of 2.65 µM.

`CC(=O)NS(=O)(=O)c1ccc(-n2nc(-c3ccccc3)cc2C2=CC(=O)C=CC2=O)cc1`: the GI50 in [7], in assay [8], in assay [2], in [3], in assay [4] and in assay [9] was above 100 µM in each case. Also, the GI50 in [6] is above 100 µM. The TGI in assay [7], in [8], in [2], in assay [3], in assay [4] and in assay [9] was above 100 µM each time. Further, the TGI in assay [6] was above 100 µM.

As to `O=C(Nc1ccccc1C(=O)Nc1nccs1)c1ccccc1`, the TGI in [1], in assay [7], in assay [8], in assay [2], in assay [3] and in assay [4] was above 100 µM in each case. Also, the TGI in assay [5] is above 100 µM; in [9] it was above 100 µM; in assay [6] it was 60.9 µM.

Consider `c1ccc(COc2cccc3cccnc23)cc1`, for which the TGI in assay [1], in assay [7], in assay [8], in [4], in assay [5] and in assay [9] was above 100 µM throughout. In addition, the values for the TGI in [6] and in [10] were 88.4 µM and above 100 µM, respectively.

Regarding `CC1=NN(C(=O)c2cc(Cl)cc([N+](=O)[O-])c2)C(=O)C1N=Nc1ccccc1C(=O)O` (centres undefined), the TGI in [1], in [7], in assay [8], in assay [3], in [4] and in assay [5] was above 100 µM in each case. The compound further showed a TGI in assay [6] above 100 µM.

On to `C/C=C/C(=O)[O-].N.N.N.N.N.[Co+3].[O-][Cl+3]([O-])([O-])[O-]`, for which the GI50 in assay [1], in assay [7], in assay [8], in assay [2], in assay [4] and in assay [5] was above 100 µM each time. Moreover, the GI50 in [9], in assay [6] and in assay [10] was above 100 µM throughout. The TGI in assay [1], in assay [7], in assay [8], in assay [2], in assay [4] and in assay [5] was above 100 µM each time. The TGI in assay [9], in assay [6] and in [10] was above 100 µM each time.

For `C[C@@H](c1ccccc1)N(CC#N)C1CCC[C@H]1O` (some centres undefined), the TGI in assay [1], in assay [7], in assay [8], in assay [2], in assay [4] and in assay [5] was above 100 µM throughout. Besides, the TGI in assay [9], in assay [6] and in assay [10] was above 100 µM throughout.

Consider `Cc1ccc(/C=C2\CN(Cc3cn(CCNc4ccnc5cc(Cl)ccc45)nn3)C/C(=C\c3ccc(C)cc3)C2=O)cc1`, for which the GI50 in assay [1] was 1.9 µM; in assay [7] it was 2.03 µM; in [8] it was 1.92 µM; in assay [4] it was 1.99 µM; in assay [5], 1.79 µM; in assay [9], 2.2 µM. In addition, the values for the GI50 in [6] and in assay [10] were 2.04 µM and 1.66 µM, respectively. Besides, the TGI amounted to 3.57 µM in assay [1]; 4.85 µM in assay [7]; 3.73 µM in [8]; 3.73 µM in assay [4]; 3.26 µM in [5]; 4.62 µM in [9]. Moreover, the TGI in assay [6] is 4.2 µM; in assay [10], 3.57 µM.

Take `COc1cc(CC2CC(c3ccc4c(c3)OCO4)OC2=O)cc(OC)c1OC` (centres undefined): the TGI in assay [1], in assay [7], in assay [2], in assay [3], in [4] and in [5] was above 100 µM in each case. For the same compound, the TGI in [9] and in assay [6] was above 100 µM each time.

For `CCC1(CC)C(=O)[N-]C(=O)[N-]C1=O.[Au+].[Au+].c1ccc([PH+](c2ccccc2)c2ccccc2)cc1.c1ccc([PH+](c2ccccc2)c2ccccc2)cc1`, the GI50 in assay [1] is 1.73 µM; in assay [8], 1.03 µM; in [4], 1.52 µM; in assay [9], 0.752 µM. Besides, the TGI in assay [1] amounted to 3.11 µM; in [8] it was 2.3 µM; in [4] it was 2.91 µM; in assay [9], 2.05 µM.

In the case of `O=C(O)c1oc2cccc3c2c1CCC3`, the TGI in assay [1], in assay [7], in assay [8], in assay [2], in assay [4] and in [5] was above 100 µM in each case. In addition, the TGI in assay [9], in [6] and in [10] was above 100 µM in each case.

For the origin of these results see PubChem BioAssay (NCI).
